Assay results taken from US20170105967A1, “COMPOSITIONS AND METHODS OF TREATMENT OF INFLAMMATORY SKIN CONDITIONS USING ALLANTOIN” (Scioderm, Inc., priority 2010, published 2017).

What was measured:
[1] = tested on: calluses and other forms of hyperkeratization; conditions: lower concentrations; cited from earlier work
[2] = in vitro; reactive sulphydryl groups released; cited from earlier work
psoriatic scales = conditions: in vitro incubation with allantoin solution; cited from earlier work
[3] = percutaneous absorption through dermis only human cadaver skin; format: in vitro ADME; conditions: isolated dermis
Description: The formulations A.S. 1-139E, A.S. 1-81B, A.S. 1-135C, A.S. 1-135G, and A.S. 1-81 G were tested on a minimum of triplicate sections from three different cadaver skin donors and three different porcine skin donors for the percutaneous absorption of allantoin over a 48-hour dose period. The intent of this study was to mimic the absorption of allantoin directly into the capillary bed, while the dermis only study attempted to mimic the loss of skin barrier function due to broken skin or blisters. In addition, each formulation was tested in at least triplicate membrane chambers. At preselected times after dosing, the dermal receptor solution was removed in its entirety, replaced with fresh receptor solution, and an aliquot saved for subsequent analysis. The samples were analyzed for the allantoin using high performance liquid chromatography with UV and MS detection (HPLC-UV-MS). The bottom table of FIG. 3 lists a remanufacture of the 9% allantoin cream (A.S. 1-153H) to achieve a better viscosity of the final product.

[4] = sodium lauryl sulfate and beeswax emulsion, pH 6.8 to 7.5; with time and accelerated tests at 40° C.; cited from earlier work

NC(=O)NC1NC(=O)NC1=O (centres unmarked) [allantoin]
concentration loosening the desmosomes (protein bridges) [1]: < 1% | protein dispersing activity [2]: confirm the protein dispersing activity | concentration showing keratolytic activity on psoriatic scales (psoriatic scales): ≥ 0.2% | penetration of allantoin when the skin's barrier has been damaged or removed [3]: increases significantly | stability of allantoin [4]: degrades significantly
